Experimental data reported in US20260001898A1, “Heteroaryl compounds as inhibitors of TYK2/JAK1, composition and application thereof” (Accro Bioscience (HK) Limited, priority 2022, published 2026).

Experiments:
[1] = system: IFNα induced TYK2/JAK1 mediated STAT activation; assay: Luciferase assay in L929 ISRE cells stimulated with IFN-α; format: cell-based; conditions: IFN-α 100 ng/mL; for inhibition at 0.05 µM / inhibition at 0.2 µM / inhibition at 1 µM: Mus musculus; for inhibition at 0.05 µM: read-out: Inhibitory activity % (50 nM); for inhibition at 0.2 µM: read-out: Inhibitory activity % (200 nM); for inhibition at 1 µM: read-out: Inhibitory activity % (1000 nM)
Experimental: • 1. L929 ISRE cells (5000 cells/well) were seeded on 96-well plates and incubated overnight at room temperature-; • 2. The cells were pretreated by adding different concentrations (10 nM, 50 nM, 100 nM, 200 nM or 1000 nM) of the test compounds for 2 hours; • 3. Added IFN-α (100 ng/mL) to stimulate cells for 6 hours; • 4. Removed the upper medium, add PBS (100 μL) and washed, then removed PBS; • 5. Added PLB lysis solution (50 μL) to each well, shook the well for 15 minutes; • 6. Transferred PLB lysis solution (30 μL) to a new 96-well whiteboard, added LAR II reagent (LAR II), then quickly read the 450 nm OD value with a plate washer; • 7. Added Stop & Glo reagent (30 μL), then read the 450 nm OD value using the plate washer. • 8. The final result was the OD value in step 6/OD value in step 7.

JAK1 JH2 = JAK1 JH2 (Homo sapiens (Human), UniProt P23458); assay: Competitive binding assay
Experimental: (§1) For most assays, kinase-tagged T7 phage strains were prepared in an E. coli host derived from the BL21 strain. E. coli were grown to log-phase and infected with T7 phage and incubated with shaking at 32° C. until lysis. The lysates were centrifuged and filtered to remove cell debris. The remaining kinases were produced in HEK-293 cells and subsequently tagged with DNA for qPCR detection. Streptavidin coated magnetic beads were treated with biotinylated small molecule ligands for 30 minutes at room temperature to generate affinity resins for kinase assays. The liganded beads were blocked with excess biotin and washed with blocking buffer (SeaBlock (Pierce), 1% BSA, 0.05% Tween 20, 1 mM DTT) to remove unbound ligand and to reduce non-specific binding. […] Test compounds were prepared as 111X stocks in 100% DMSO. Dissociation constants (Kds) were determined using an 11-point 3-fold compound dilution series with three DMSO control points. […] The compounds were then diluted directly into the assays such that the final concentration of DMSO was 0.9%. All reactions performed in polypropylene 384-well plate. Each was a final volume of 0.02 ml. […] The beads were then re-suspended in elution buffer (1×PBS, 0.05% Tween 20, 0.5 μM nonbiotinylated affinity ligand) and incubated at room temperature with shaking for 30 minutes. The kinase concentration in the eluates was measured by qPCR.
(§2) An 11-point 3-fold serial dilution of each test compound was prepared in 100% DMSO at 100× final test concentration and subsequently diluted to 1× in the assay (final DMSO concentration=1%). Most Kds were determined using a compound top concentration=30,000 nM. If the initial Kd determined was <0.5 nM (the lowest concentration tested), the measurement was repeated with a serial dilution starting at a lower top concentration.
(§3) Binding constants (Kds) were calculated with a standard dose-response curve using the Hill equation: […]
(§4) The Hill Slope was set to −1.
(§5) Curves were fitted using a non-linear least square fit with the Levenberg-Marquardt algorithm.

TYK2 JH1 = TYK2 JH1 (Homo sapiens (Human), UniProt P29597); assay: Competitive binding assay
Experimental: as §1, §2, §3, §4, §5

TYK2 JH2 = TYK2 JH2 (Homo sapiens (Human), UniProt P29597); assay: Competitive binding assay
Experimental: as §1, §2, §3, §4, §5

JAK1 JH1 = JAK1 JH1 (Homo sapiens (Human), UniProt P23458); assay: Competitive binding assay
Experimental: as §1, §2, §3, §4, §5

JAK3 JH1 = JAK3 JH1 (Homo sapiens (Human), UniProt P52333); assay: Competitive binding assay
Experimental: as §1, §2, §3, §4, §5

JAK2 JH1 = JAK2 JH1 (Homo sapiens (Human), UniProt O60674); assay: Competitive binding assay
Experimental: as §1, §2, §3, §4, §5

[2] = system: IFNα induced CXCL-10 in PBMC; assay: ELISA of IFNα induced CXCL-10 in PBMC; format: cell-based; conditions: for IC50: IFNα induced CXCL-10 in PBMC
Experimental: • 1. Soak plate: Add 300 μL 1× washing solution and let stand for 30 seconds. After discarding the washing solution, anhydrous the microporous plate on absorbent paper. • 2. Add standard: Add 100 μL of 2-fold standard to standard well. Add 100 μL standard dilution (serum/plasma sample) or culture medium (cell culture supernatant sample) to blank well. • 3. Add sample: Serum/plasma: Add 50 μL 1× assay buffer and 50 μL sample to sample well. Cell culture supernatant: Add 100 μL cell culture supernatant to sample well. • 4. Add detection antibody: Add 50 μL diluted detection antibody (1:100 diluted) to each well. Make sure steps 4, 5 and 6 are added continuously without interruption. The sampling process was completed within 15 minutes. • 5. Incubation: Use sealing plate film to seal the plate. Shake at 300 rpm and incubate for 2 hours at room temperature. • 6. Washing: Discard the liquid, add 300 μL of washing solution and wash the plate 6 times. Pat anhydrous on blotting paper after each wash. To obtain the desired experimental performance, the residual liquid must be completely removed. • 7. Enzyme addition: Add 100 μL diluted horseradish peroxidase labeled streptavidin to each well (1:100 diluted). • 8. Incubation: Seal the plate with a new sealing film. Shake at 300 rpm and incubate at room temperature for 45 minutes. • 9. Washing: Repeat […]. • 10. Add substrate for color development: Add 100 μL of color development substrate TMB to each well, keep away from light, and incubate at room temperature for 5-30 minutes. • 11. Add Stop Solution: Add 100 μL stop solution to each well. The color changed from blue to yellow. If the color appears green or the color changes unevenly, gently tap the frame of the plate to mix well. • 12. Assay readout: Within 30 minutes, perform dual wavelength detection using a microplate reader to measure the OD at the absorption maximum at 450 nm and reference wavelengths at 570 nm or 630 nm. The calibrated OD value is the measured value at 450 nm minus the measured value at 570 nm or 630 nm.

[3] = system: JAK1 JH2 and TYK2 JH2 versus JAK1 JH1, JAK2 JH1, JAK3 JH1 and TYK2 JH1; assay: Competitive binding assay, selectivity JH2 versus JH1 domains
Experimental: For most assays, kinase-tagged T7 phage strains were prepared in an E. coli host derived from the BL21 strain. E. coli were grown to log-phase and infected with T7 phage and incubated with shaking at 32° C. until lysis. The lysates were centrifuged and filtered to remove cell debris. The remaining kinases were produced in HEK-293 cells and subsequently tagged with DNA for qPCR detection. Streptavidin coated magnetic beads were treated with biotinylated small molecule ligands for 30 minutes at room temperature to generate affinity resins for kinase assays. The liganded beads were blocked with excess biotin and washed with blocking buffer (SeaBlock (Pierce), 1% BSA, 0.05% Tween 20, 1 mM DTT) to remove unbound ligand and to reduce non-specific binding. […] Test compounds were prepared as 111X stocks in 100% DMSO. Dissociation constants (Kds) were determined using an 11-point 3-fold compound dilution series with three DMSO control points. […] The compounds were then diluted directly into the assays such that the final concentration of DMSO was 0.9%. […] The kinase concentration in the eluates was measured by qPCR.
An 11-point 3-fold serial dilution of each test compound was prepared in 100% DMSO at 100× final test concentration and subsequently diluted to 1× in the assay (final DMSO concentration=1%). Most Kds were determined using a compound top concentration=30,000 nM. […]

JAK1/JAK2 pathway = assay: Western blot p-STAT1/STAT1 in IFN-γ-stimulated HT-29 cells; format: cell-based; conditions: IFN-γ 100 ng/mL
Experimental: HT-29 cells were digested by trypsin and suspended in Dulbecco's Modified Eagle Medium (DMEM) and counted. The tested compounds were added into the 6 well plates (400 000/per well). After 2 hours, IFN-γ (100 ng/mL) was added to stimulate cells for 30 minutes. The cells were collected and lysed with protein lysate. The protein was quantitatively tested by BCA kit. Finally, p-STAT1/STAT1 and internal reference protein β-actin were detected by Western blot.

TYK2/JAK2 pathway = assay: Western blot p-STAT4/STAT4 in IL-12-stimulated mouse spleen cells; format: cell-based, mice; conditions: IL-12 50 ng/mL
Experimental: The spleen of mice was isolated and ground into single cells with bent tweezers. The single cells of the spleen were centrifuged for 5 minutes (400 g), and erythrocytes were lysed with Ammonium-Chloride-Potassium (ACK) solution and neutralized in 1640 medium, centrifuged for 5 minutes (400 g), and then re-suspended in 1640 medium. The spleen single cell suspension was counted, transferred to and incubated on a 6-well plate (5 million/well). The compounds to be tested were added. After 2 hours, IL-12 (50 ng/mL) was added to stimulate the cells for 1 h. The cells were collected and lysed with protein lysate. The protein was quantitatively tested by BCA kit. Finally, p-STAT4/STAT4 and internal reference protein […] were detected by Western blot.

JAK2/JAK2 pathway = assay: Western blot p-STAT3/STAT3 in TPO-stimulated HEL cells; format: cell-based; conditions: TPO 100 ng/mL
Experimental: HEL cells were digested by trypsin, re-suspended in 1640 medium and counted. The compounds to be measured were added to 6 well plates (1 million/per well) for 2 hours, and then thrombopoietin (TPO)(final concentration: 100 ng/mL) was added to stimulate cells for 30 minutes. The cells were collected and lysed with protein lysate. The protein was quantitatively tested by bicinchoninic acid (BCA) kit. Finally, p-STAT3/STAT3 and internal reference protein β-actin were detected by Western blot.

JAK2 and TYK2 = conditions: some studies, background; cited from earlier work

Sequence of JAK1 JH1 (P23458 875-1153): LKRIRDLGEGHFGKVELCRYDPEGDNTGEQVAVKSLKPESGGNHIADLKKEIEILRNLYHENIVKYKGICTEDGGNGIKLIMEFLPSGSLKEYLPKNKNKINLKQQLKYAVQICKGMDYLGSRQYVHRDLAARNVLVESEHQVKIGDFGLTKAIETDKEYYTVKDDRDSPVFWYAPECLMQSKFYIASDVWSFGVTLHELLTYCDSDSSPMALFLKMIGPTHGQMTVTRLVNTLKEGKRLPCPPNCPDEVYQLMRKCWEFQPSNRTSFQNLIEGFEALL
Sequence of JAK1 JH2 (P23458 583-855): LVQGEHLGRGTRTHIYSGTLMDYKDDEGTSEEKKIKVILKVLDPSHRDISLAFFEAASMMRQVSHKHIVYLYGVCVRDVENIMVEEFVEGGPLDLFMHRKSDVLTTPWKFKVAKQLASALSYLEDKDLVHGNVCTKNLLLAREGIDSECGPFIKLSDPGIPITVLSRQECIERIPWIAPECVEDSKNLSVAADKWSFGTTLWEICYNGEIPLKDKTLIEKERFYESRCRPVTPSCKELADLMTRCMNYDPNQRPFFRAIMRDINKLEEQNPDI
Sequence of TYK2 JH2 (P29597 589-875): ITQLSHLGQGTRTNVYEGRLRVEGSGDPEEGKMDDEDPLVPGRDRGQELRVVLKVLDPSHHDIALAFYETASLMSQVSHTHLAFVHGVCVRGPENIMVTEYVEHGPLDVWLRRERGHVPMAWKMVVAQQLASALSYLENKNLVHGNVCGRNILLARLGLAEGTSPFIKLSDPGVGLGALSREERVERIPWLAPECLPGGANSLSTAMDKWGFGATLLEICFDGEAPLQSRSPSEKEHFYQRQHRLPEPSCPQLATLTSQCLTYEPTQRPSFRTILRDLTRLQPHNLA
Sequence of JAK2 JH1 (O60674 849-1124): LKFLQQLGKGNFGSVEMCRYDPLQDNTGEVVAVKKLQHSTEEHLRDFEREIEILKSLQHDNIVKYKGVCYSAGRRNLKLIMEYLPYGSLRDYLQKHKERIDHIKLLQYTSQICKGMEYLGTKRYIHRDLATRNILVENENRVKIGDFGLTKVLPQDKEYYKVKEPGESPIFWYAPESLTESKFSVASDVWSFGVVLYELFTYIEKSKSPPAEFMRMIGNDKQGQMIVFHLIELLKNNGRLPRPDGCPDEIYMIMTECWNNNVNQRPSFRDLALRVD
Sequence of TYK2 JH1 (P29597 897-1176): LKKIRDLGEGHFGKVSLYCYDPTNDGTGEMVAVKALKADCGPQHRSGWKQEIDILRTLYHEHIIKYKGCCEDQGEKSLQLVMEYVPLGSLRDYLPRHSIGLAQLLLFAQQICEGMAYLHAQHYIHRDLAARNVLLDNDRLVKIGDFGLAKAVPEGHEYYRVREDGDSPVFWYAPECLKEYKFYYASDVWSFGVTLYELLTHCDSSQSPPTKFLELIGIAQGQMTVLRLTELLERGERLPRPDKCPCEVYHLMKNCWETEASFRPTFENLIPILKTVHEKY
Sequence of JAK3 JH1 (P52333 822-1111): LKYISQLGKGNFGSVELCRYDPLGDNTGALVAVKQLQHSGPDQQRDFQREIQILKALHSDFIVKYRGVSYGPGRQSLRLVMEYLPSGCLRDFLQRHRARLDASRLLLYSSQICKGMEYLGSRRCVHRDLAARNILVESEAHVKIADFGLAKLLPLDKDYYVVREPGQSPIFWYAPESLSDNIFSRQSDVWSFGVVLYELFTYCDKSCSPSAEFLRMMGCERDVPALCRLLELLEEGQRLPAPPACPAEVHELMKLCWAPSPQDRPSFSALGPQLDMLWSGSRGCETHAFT

| Molecule | inhibition at 0.05 µM ([1]; 50 nM compound) | inhibition at 0.2 µM ([1]; 200 nM compound) | inhibition at 1 µM ([1]; 1000 nM compound) | IC50 [2] | effect on downstream STAT1 phosphorylation induced by IFN-γ (JAK1/JAK2 pathway) (JAK1/JAK2 pathway) | inhibition of downstream STAT4 phosphorylation induced by IL-12 (TYK2/JAK2 pathway) (TYK2/JAK2 pathway) | effect on TPO-induced downstream STAT3 phosphorylation (JAK2/JAK2 pathway) (JAK2/JAK2 pathway) | other results |
| --- | --- | --- | --- | --- | --- | --- | --- | --- |
| COc1c(Nc2cc(NC(=O)C3CC3)nnc2C(N)=O)cccc1-c1cc(P(=O)(C2CC2)C2CC2)n(C)n1 [Compound A1, 6-(cyclopropanecarboxamido)-4-((3-(5-(dicyclopropylphosphoryl)-1-methyl-1H-pyrazol-3-yl)-2-methoxyphenyl)amino)pyridazine-3-carboxamide] | 34% | 87% | 98% | 6.3 nM | inhibited JAK1/JAK2 pathway in a concentration-dependent manner |  |  | Kd (JAK1 JH2): 0.02 ± 0.002 nM; affinity to JAK1 JH2 (JAK1 JH2): strong affinity; Kd (TYK2 JH1): 550 ± 50 nM; affinity to TYK2 JH1 (TYK2 JH1): weak affinity; Kd (TYK2 JH2): 0.0044 ± 0.003 nM; affinity to TYK2 JH2 (TYK2 JH2): strong affinity; Kd (JAK1 JH1): 6900 ± 900 nM; affinity to JAK1 JH1 (JAK1 JH1): weak affinity; Kd (JAK3 JH1): 210 ± 15 nM; affinity to JAK3 JH1 (JAK3 JH1): weak affinity; Kd (JAK2 JH1): 790 ± 40 nM; affinity to JAK2 JH1 (JAK2 JH1): weak affinity; inhibition of IFNα induced CXCL-10 in PBMC [2]: effectively inhibited IFNα induced CXCL-10 in PBMC; selectivity to bind JAK1 JH2 and TYK2 JH2 than JAK1 JH1, JAK2 JH1, JAK3 JH1 and TYK2 JH1 [3]: more than 10,000 times |
| COc1c(Nc2cc(Nc3cc(C#N)ccn3)nnc2C(N)=O)cccc1-c1cc(P(=O)(C2CC2)C2CC2)n(C)n1 [Compound A35] | 54% | 84% | 98% |  | inhibited JAK1/JAK2 pathway in a concentration-dependent manner | effectively inhibited the downstream STAT4 phosphorylation induced by IL-12 | had no effect on TPO-induced downstream STAT3 phosphorylation |  |
| [2H]C([2H])([2H])n1nc(-c2cccc(Nc3cc(Nc4cc(C#N)ccn4)nnc3C(N)=O)c2OC)cc1P(=O)(C1CC1)C1CC1 [Compound A49] | 33% | 86% | 87% |  | inhibited JAK1/JAK2 pathway in a concentration-dependent manner | effectively inhibited the downstream STAT4 phosphorylation induced by IL-12 | had no effect on TPO-induced downstream STAT3 phosphorylation |  |
| [2H]C([2H])([2H])n1nc(-c2cccc(Nc3cc(Nc4ccc(OC)cn4)nnc3C(N)=O)c2OC)cc1P(=O)(C1CC1)C1CC1 [Compound A50] |  |  | 77% |  | inhibited JAK1/JAK2 pathway in a concentration-dependent manner | effectively inhibited the downstream STAT4 phosphorylation induced by IL-12 | had no effect on TPO-induced downstream STAT3 phosphorylation |  |
| Cn1cc(Nc2nccc(N3C[C@H]4CC[C@@H](C3)N4C(=O)[C@@H]3CC3(F)F)n2)cn1 [PF-06700841] |  |  |  |  |  |  |  | ratio of JAK2 IC50/TYK2 IC50 (JAK2 and TYK2): about 3.3 |
| BMS986165 [reference compound] |  |  |  | 16.6 nM | had no effect on downstream STAT1 phosphorylation induced by IFN-γ |  | had no effect on TPO-induced downstream STAT3 phosphorylation | Inhibitory activity % (50 nM) ([1]; 50 nM compound): 62%; Inhibitory activity % (200 nM) ([1]; 200 nM compound): 94%; Inhibitory activity % (1000 nM) ([1]; 1000 nM compound): 99% |
